# Test results as given in patent US8314215B2, “Mild chemically cleavable linker system” (The Board of Trustees of the Leland Stanford Junior …, priority 2006, dated 2012).
# Assays:
# [1] = Cleavage of probe by incubation with Na2S2O4, LC-MS analysis; format: physicochemical; conditions: 100 mM Na2S2O4, after 30 minutes
# Protocol: We initially tested the cleavage of SV1 (shown in FIG. 3) by incubation with 100 mM Na2S2O4. After 30 minutes full cleavage of SV1 into the two aniline fragments 3 and 4 (FIG. 3) was observed using LC-MS analysis.
# [2] = biological target: T1, Cathepsin B (Rattus norvegicus, UniProt P00787); test: Proteases targeted by SV1 after chemoselective release from immobilized streptavidin, LC-MS/MS; format: biochemical; conditions: rat liver homogenate, SV1 10 μM 2 h
# T1 construct: from tissue; host or cells: rat liver homogenate
# T1 sequence (P00787 80-333): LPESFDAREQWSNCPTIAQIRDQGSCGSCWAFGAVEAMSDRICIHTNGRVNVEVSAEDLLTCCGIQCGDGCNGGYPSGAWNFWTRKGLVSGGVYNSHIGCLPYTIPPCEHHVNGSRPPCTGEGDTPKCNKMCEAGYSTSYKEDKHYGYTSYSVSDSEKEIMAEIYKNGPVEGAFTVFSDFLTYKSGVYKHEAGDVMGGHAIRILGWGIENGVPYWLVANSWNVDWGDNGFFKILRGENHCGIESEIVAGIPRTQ
# Protocol: (§1) Rat liver homogenate (20 mg of total protein) in reaction buffer was incubated with SV1 (10 μM) for 2 h. Unreacted probe was removed by filtration over a PD10 column (Amersham Bioscience) and the eluate (in PBS buffer) was shaken with immobilized streptavidin slurry (20 μL) for 1 h. The streptavidin beads were subsequently washed with PBS buffer containing 1M NaCl, 0.1% SDS and 10% EtOH (3× each). Proteases labeled by the probe were cleaved off with Na2S2O4 using the above-described procedure. The pooled supernatant was denatured by incubating with 1 volume of 12 M urea. Next, disulfide bonds were reduced with DTT (10 mM, 60 minutes) and free cysteines were capped with iodoacetamide (40 mM, 60 minutes). Unreacted iodoacetamide was neutralized by addition of an equal amount of DTT and the concentration of urea was lowered to 2 M by addition of water. Trypsin digestion was performed overnight at 37° C. (0.1 μg of trypsin). Digestion was stopped by addition of formic acid (5% final concentration) and digested samples were desalted using a C18 Zip-Tip (Millipore) prior to LC/MS-MS analysis. Data was analyzed by the Sequest algorithm (Novatia) and evaluated by Scaffold (Proteome Software Inc.). Peptides with probability value>95% (in Scaffold) were considered positive hits.
# (§2) Although the optimized release of probe-labeled proteins from streptavidin using dithionite is slightly lower in efficiency than under denaturing conditions, this method is likely to result in less background signals leading to easier identification of the target proteases. In addition the direct on-bead cleavage method using a mass spectrometry-compatible buffer allows direct in solution digestion of samples followed by MS analysis. To confirm these issues we analyzed the samples in FIG. 2 by direct solution digestion with trypsin followed by LC-MS/MS analysis of all peptide products. This analysis identified multiple peptides from each of the expected cathepsin proteases without any contamination by background proteins (Table 1). […] A more comprehensive and detailed analysis is reported in Fonović et al., Proteomic evaluation of chemically cleavable activity based probes,” Mol. and Cell Proteomics Manuscript M700-124-MCP200 (published online Jul. 5, 2007).
# [3] = biological target: T2, Cathepsin C (Rattus norvegicus, UniProt P80067); test: as above; format: biochemical; conditions: rat liver homogenate, SV1 10 μM 2 h
# T2 construct: from tissue; host or cells: rat liver homogenate
# T2 sequence (P80067 25-462): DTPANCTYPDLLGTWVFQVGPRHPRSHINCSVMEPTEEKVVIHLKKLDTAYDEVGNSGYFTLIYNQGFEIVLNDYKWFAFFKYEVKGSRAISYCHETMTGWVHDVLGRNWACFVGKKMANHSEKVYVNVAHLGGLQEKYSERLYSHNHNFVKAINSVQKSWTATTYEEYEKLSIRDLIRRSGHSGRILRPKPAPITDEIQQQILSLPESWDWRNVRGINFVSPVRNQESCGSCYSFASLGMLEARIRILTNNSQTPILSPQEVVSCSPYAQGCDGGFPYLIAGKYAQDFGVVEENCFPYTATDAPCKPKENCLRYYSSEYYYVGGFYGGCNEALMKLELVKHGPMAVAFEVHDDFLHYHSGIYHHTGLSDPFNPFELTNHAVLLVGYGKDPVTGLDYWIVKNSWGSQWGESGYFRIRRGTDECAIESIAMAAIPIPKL
# Protocol: as §1, §2
# [4] = biological target: T3, Cathepsin H (Rattus norvegicus, UniProt P00786); test: as above; format: biochemical; conditions: rat liver homogenate, SV1 10 μM 2 h
# T3 construct: from tissue; host or cells: rat liver homogenate
# T3 sequence (P00786 96-333): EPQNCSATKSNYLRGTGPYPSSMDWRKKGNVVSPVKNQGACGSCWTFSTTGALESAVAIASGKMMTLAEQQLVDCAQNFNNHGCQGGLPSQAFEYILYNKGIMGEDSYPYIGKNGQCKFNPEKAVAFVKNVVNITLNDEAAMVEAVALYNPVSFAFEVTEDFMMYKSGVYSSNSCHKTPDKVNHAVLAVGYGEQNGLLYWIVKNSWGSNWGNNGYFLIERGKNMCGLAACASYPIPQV
# Protocol: as §1, §2
# [5] = biological target: T4, Cathepsin Z (Rattus norvegicus, UniProt Q9R1T3); test: as above; format: biochemical; conditions: rat liver homogenate, SV1 10 μM 2 h
# T4 construct: from tissue; host or cells: rat liver homogenate
# T4 sequence (Q9R1T3 64-306): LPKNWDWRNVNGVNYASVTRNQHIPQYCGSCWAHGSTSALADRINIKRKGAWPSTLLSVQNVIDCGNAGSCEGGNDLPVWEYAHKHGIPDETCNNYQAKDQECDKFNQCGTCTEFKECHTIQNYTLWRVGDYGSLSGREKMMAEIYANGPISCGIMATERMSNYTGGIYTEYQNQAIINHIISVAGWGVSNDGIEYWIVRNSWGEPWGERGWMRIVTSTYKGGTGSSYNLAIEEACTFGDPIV
# Protocol: as §1, §2
structure (smiles),measurement,setting,value
CCOC(=O)[C@H]1O[C@@H]1C(=O)N[C@@H](CC(C)C)C(=O)N[C@@H](Cc1ccc(O)cc1)C(=O)NCCc1ccc(O)c(N=Nc2ccc(C(=O)N[C@@H](CCCCNC(=O)CCCC[C@@H]3SC[C@@H]4NC(=O)N[C@@H]43)C(N)=O)cc2)c1 [SV1],cleavage into the two aniline fragments 3 and 4,[1],full cleavage
same,Number of Identified peptides,[2],2
same,Sequence coverage,[2],8%
same,Number of Identified peptides,[3],3
same,Sequence coverage,[3],16%
same,Number of Identified peptides,[4],5
same,Sequence coverage,[4],29%
same,Number of Identified peptides,[5],4
same,Sequence coverage,[5],32%
